Source: patent publication US20240248442A1, “COMPUTER-IMPLEMENTED METHOD FOR APPLYING A GLUTAMINE […] ON AN AG[…]” (BASF SE, priority 2021, published 2024)

System: GLXMA (Glycine max; soybean plant)
Assay: Greenhouse spray test of glufosinate efficacy on soybean plants under different nitrogen supply
Format: in vivo
Settings: GF-solution 280 g/l glufosinate-ammonium, 300 g a.i./ha, water rate 200 l/ha, assessed 3 and 7 daa (time of this value not stated)
Experimental: GLXMA (Glycine max; soybean plant) plants were grown on soil in a green house. Before separation into single pots plants were watered with demineralized water (VE-water). After separation into single pots and splitting into four different nourishing groups, the pots were individually watered with 50 ml of the respective nutrient solution. The following recipe for the full-nutrient solution (5 mM N) mentioned in the book “Diagnose des Ernährungszustandes von Kulturpflanzen”, ISBN: 978-3-86263-118-6, table 3-2, page 94 has been used:
Plants were grown until the growth stage GS 61 (58-74 cm), where first symptoms of nutrient deficiency became visible. This included yellowing of the leaves which were watered with N-deficient media.
A spray application was performed in a high speed spray cabin with the following settings: used nozzle: TT 110 02; pressure: 3 bar; speed: 1.33 m/s; temperature: 22° C.; relative spray humidity: 55%
Spray solution: A GF-solution comprising 280 g/l glufosinate-ammonium is sprayed with an a.i. dose rate of 300 g/ha and a water rate of 200 l/ha. The control plants were sprayed with water (ddH2O) only. After spraying, all plants were watered with VE-water. A biological assessment was performed 3 and 7 days after application (daa).
In other words, to achieve an N-deficiency, the plants were separated in four different groups, which were watered with 4 different nutrient solutions. The “full” medium contained a final concentration of 5 mM N nitrogen-sources, whereas the N-deficiency media contained either 0 mM N (“null” medium) or 1.25 mM N and 2.5 mM N (“deficiency” media). Nutrient deficiency became visible at the GS 61.
In FIGS. 2 and 3, GLXMA is Glycine max (soybean plant), G ai/ha is grams of active ingredient per hectare, CWD is the control group without treatment, GF-Solution is the solution comprising 280 g/l glufosinate-ammonium. At full (5 mM) or half full (2.5 mM) nitrogen supply was detected and rated to an average of 35. Lowering the nitrogen supply to a level of 1.25 mM increases the efficacy of glufosinate to 48, which is visibly by more chlorotic and necrotic tissue. Under complete nitrogen deficiency the symptoms are boosted and result in an average efficacy rating of 75.

`CP(=O)(O)CCC(N)C(=O)O` (racemic) [glufosinate, (2RS)-2-amino-4-[hydroxy-(methyl)phosphinoyl]butyric acid] was tested, and the “average efficacy rating (biological assessment)” value (complete nitrogen deficiency (0 mM N)) was 75, the “average efficacy rating (biological assessment)” value (full (5 mM) nitrogen supply) was 35 and the “average efficacy rating (biological assessment)” value (half full (2.5 mM) nitrogen supply) was 35. For the same molecule, the “average efficacy rating (biological assessment)” value (nitrogen supply 1.25 mM) was 48.
